Assays:
[1] = tested on: E. coli CysC (JM81A complemented with M. tuberculosis CysC); experiment: microbe, parasite or virus in culture; assay type: cell-based; conditions: Escherichia coli, read-out: percent inhibition of growth
[2] = tested on: E. coli CysH (JM81A complemented with M. smegmatis CysH); experiment: microbe, parasite or virus in culture; assay type: cell-based; conditions: Escherichia coli; E. coli CysH strain; 25 μg/mL of compound; read-out: percent inhibition of growth
[3] = tested on: E. coli BioB (JM81A control strain containing the BioB gene); experiment: microbe, parasite or virus in culture; assay type: cell-based; conditions: Escherichia coli, 25 μg/mL of compound, read-out: percent inhibition of growth
[4] = molecular target: APS kinase of E. coli (Escherichia coli, UniProt P0A6J1); conditions: cited from earlier work
[5] = molecular target: T1, M. tuberculosis CysC (APS kinase) (Mycobacterium tuberculosis, UniProt P9WNM5); assay type: biochemical
T1 construct: made in house; host or cells: E. coli BL21 STAR, plasmid pET28b(+)CysC
T1 sequence (P9WNM5 442-614 limits assumed): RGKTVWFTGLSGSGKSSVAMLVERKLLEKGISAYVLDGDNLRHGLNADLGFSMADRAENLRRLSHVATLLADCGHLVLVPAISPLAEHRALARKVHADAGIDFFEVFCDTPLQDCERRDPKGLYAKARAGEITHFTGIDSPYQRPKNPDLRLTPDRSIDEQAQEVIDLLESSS

Sequence of APS kinase of E. coli (P0A6J1 whole entry): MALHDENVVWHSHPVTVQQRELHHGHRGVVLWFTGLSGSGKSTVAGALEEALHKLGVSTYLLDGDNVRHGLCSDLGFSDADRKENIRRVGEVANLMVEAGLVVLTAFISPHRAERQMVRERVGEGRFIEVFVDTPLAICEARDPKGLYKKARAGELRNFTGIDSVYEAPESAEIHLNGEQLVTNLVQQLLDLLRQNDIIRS

SMILES	inhibition at 25 µg/mL [1] [%]	inhibition at 25 µg/mL [2] [%]	inhibition at 25 µg/mL [3] [%]	Km [4] [µM]	VmaxE0 [5] [s⁻¹]	VmaxE0 (two-fold decrease) [5] [mM⁻¹ s⁻¹]	apparent VmaxE0 [5] [s⁻¹]	Km ([5]; read-out: apparent Km) [µM]
CCN(CC)CC[n+]1ccc2c(C)c3[nH]c4ccccc4c3c(C)c2c1	98	97	0	–	–	–	–	–
O=C(O)c1ccccc1N[C@H](c1ccccc1)c1ccc2cccnc2c1O	93	25	1	–	–	–	–	–
O=C1Oc2ccccc2C(=O)/C1=C/Nc1ncc(-c2ccc(O)c(O)c2)s1	78	90	0	–	–	–	–	–
Nc1ccc(S(=O)(=O)Nc2cnc3ccccc3n2)cc1	94	29	77	–	–	–	–	–
CC(=N/Nc1nc2ccccc2s1)/N=N/c1cccc(O)c1	47	0	0	–	–	–	–	–
Nc1ncnc2c1ncn2[C@@H]1O[C@H](COP(=O)(O)OS(=O)(=O)O)[C@@H](O)[C@H]1O [APS, adenylyl phosphosulfate]	–	–	–	0.25	1.05	611	0.85 ± 0.04	–
Nc1ncnc2c1ncn2[C@@H]1O[C@H](COP(=O)(O)OP(=O)(O)OP(=O)(O)O)[C@@H](O)[C@H]1O [ATP]	–	–	–	–	–	–	0.95 ± 0.03	910 ± 100
[N-]=[N+]=Nc1ccc(S(=O)(=O)Nc2ncccn2)cc1	95	0	85	–	–	–	–	–
